# Reference: patent publication US20140296170A1, “PHARMACEUTICAL COMPOSITION FOR PREVENTION OR TREATMENT OF BONE DISEASES COMPRISING SPINASTEROL GLUCOSIDE DERIVATIVE” (Lifetree Biotech Co., Ltd., priority 2013, published 2014)
# Legend:
# [1] = system: collagen-induced arthritis in DBA1/J mice; assay: Collagen-induced arthritis model in DBA1/J mice; assay type: in vivo; conditions: FIG. 1
# [2] = system: cartilage of SD rats (osteoblast defected (OD) models); assay: Cartilage regeneration in osteoblast defected (OD) models; assay type: in vivo; conditions: 1 mg/kg orally once every two days for 4 weeks
# Experimental: The cartilage regeneration activity of spinasterol glucoside derivatives were evaluated in osteoblast defected (OD) models which were widely used in study on the regeneration of degenerative articular cartilage. The cartilage of SD rats, at least 9 weeks of age, was destroyed by a […] drill, followed by suturing the muscle and lipid tissues so as to allow them to go about normal daily life. Then, 3-o-β-D-glucopyranosyl-spinasterol dissolved in distilled water was orally administered at a dose of 1 mg/kg once every two days for 4 weeks. Afterwards, the animals were sacrificed, and opened around the knee to take articular cartilage tissues, followed by decalcification for 4 weeks. The cartilage tissues thus softened were paraffinized, and dyed with Safran O solution to visualize the regeneration of the cartilage.
compound,measurement,setting,value
CC[C@H](/C=C/[C@@H](C)[C@H]1CC[C@H]2C3=CC[C@H]4C[C@@H](O[C@@H]5O[C@H](CO)[C@@H](O)[C@H](O)[C@H]5O)CC[C@]4(C)[C@H]3CC[C@]12C)C(C)C [3-o-β-D-glucopyranosyl-spinasterol],"degree of collagen-induced arthritis (clinical severity by paw swelling, verified by micro-CT morphometry)","[1]; CII/CFA immunization, 10 μM/kg of weight three times a week for 28 days, observed 42 days later, compared to the positive control (CIA)",reduced in the degree of collagen-induced arthritis
same,regeneration of cartilage at the worn joint,"[1]; collagen-induced arthritis, 10 μM/kg three times a week for 28 days",showed regeneration of cartilage at the worn joint
same,levels of chondrocytes,[2]; SD rats OD model,greatly increased levels
same,levels of mast cells,[2]; SD rats OD model,greatly increased levels
same,levels of mucin,[2]; SD rats OD model,greatly increased levels
same,regeneration of cartilage tissues (Safran O staining),"[2]; SD rats, cartilage destroyed by drill, compared to the control (b), FIG. 2",significant regeneration of cartilage tissues
